The values that follow come from ChEMBL document CHEMBL1201862, “PubChem BioAssay data set” (2004).

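Where inhibition never reached the appropriate level, the endpoint shown equals the highest concentration tested. Otherwise, values were interpolated linearly from a five-concentration, 48-hour dose response in 96-well plates. Here, GI50 denotes the concentration required for 50% inhibition of growth.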 Calls of active or inactive are those of the source. No stated cut-off is given here; in the data, active = GI50 up to about 1.1 µM and inactive = higher.

Some test systems named below: SK-OV-3; RPMI-8226; NCI-H522; SN12C; A549; OVCAR-8; U-251; MOLT-4; NCI-H226; SF-539; HCC 2998; SK-MEL-5; CAKI-1; SF-295; UACC-257; HL-60.
Assay in all cases: DTP human tumour cell line panel, 48 h

For `Cc1cc(C)nc(NS(=O)(=O)c2ccc(NC(=O)c3cccc4c(N)c5ccccc5nc34)cc2)n1`, the GI50 in the assay on SK-OV-3 was > 100 µM (inactive); in the assay with RPMI-8226 it was 34.2 µM (inactive); in the assay on NCI-H522 it was > 100 µM (inactive); with SN12C it was > 100 µM (inactive); with A549, > 100 µM (inactive); in the assay with OVCAR-8 it was 65.8 µM (inactive). The GI50 in the assay on U-251 was 97.5 µM (inactive); in the assay with MOLT-4, 35 µM (inactive); in the assay with NCI-H226, > 100 µM (inactive); in the assay on SF-539, 31.6 µM (inactive); in the assay with HCC 2998, 67.1 µM (inactive); in the assay with SK-MEL-5, > 100 µM (inactive). Further, the GI50 in the assay on CAKI-1, with SF-295 and with UACC-257 was > 100 µM (inactive) each time.

`O=C(Nc1ccc(Cl)cc1Cl)C(=O)C(C(=O)c1ccc2ccccc2c1)C1OC(=O)c2ccccc21` (stereo not given): the GI50 with SK-OV-3 is 26.8 µM (inactive); in the assay on RPMI-8226 it was 4.06 µM (inactive); with NCI-H522, > 10 µM (inactive); with SN12C it was 11.7 µM (inactive); with A549, 8.32 µM (inactive); in the assay on OVCAR-8, 6.34 µM (inactive). In addition, the GI50 in the assay on U-251 was 2.51 µM (inactive); in the assay with NCI-H226 it was 1.73 µM (inactive); in the assay on SF-539, 2.68 µM (inactive); in the assay with SK-MEL-5, 9.73 µM (inactive); in the assay with HL-60, 2.96 µM (inactive); in the assay with CAKI-1 it was 13.5 µM (inactive). Besides, the GI50 was 4.02 µM (inactive) in the assay with SF-295 and 12.6 µM (inactive) in the assay on UACC-257.

Regarding `COC(=O)C(C)(C)/N=C/N(C)C`, the GI50 in the assay with SK-OV-3, in the assay with NCI-H522, in the assay with SN12C, in the assay with A549, in the assay with OVCAR-8 and with U-251 was > 100 µM (inactive) in each case. Also, the GI50 in the assay with MOLT-4 is > 100 µM (inactive); in the assay with NCI-H226 it was > 100 µM (inactive); in the assay on SF-539, > 100 µM (inactive); with HCC 2998 it was > 100 µM (inactive); in the assay on SK-MEL-5 it was > 100 µM (inactive); in the assay on HL-60 it was 55.6 µM (inactive). For the same molecule, the GI50 in the assay on CAKI-1, in the assay with SF-295 and in the assay on UACC-257 was > 100 µM (inactive) throughout.

On to `CC(CN(C)C)/C(=N\Nc1ccccc1)c1ccccc1` (stereo not given), for which the GI50 in the assay on SK-OV-3 is 15.6 µM (inactive); with RPMI-8226, 0.366 µM (active); in the assay with NCI-H522, 0.889 µM (active); with SN12C it was 3.19 µM (inactive); in the assay with A549, 0.44 µM (active); in the assay with OVCAR-8, 12.7 µM (inactive). Further, the GI50 was 1.07 µM (active) in the assay with U-251; 0.184 µM (active) with MOLT-4; 0.272 µM (active) with SF-539; 3.3 µM (inactive) in the assay with SK-MEL-5; 0.419 µM (active) in the assay on HL-60; 0.0436 µM (active) with SF-295. Further, in the assay on UACC-257, the GI50 was 2.12 µM (inactive).

In the case of `COC(=O)C1=C(c2ccc3c(c2)OCO3)O[C@H](c2cc(OC)c(OC)c(OC)c2)[C@H]1COC(C)=O`, the GI50 in the assay on SK-OV-3 is 1.14 µM (inactive); in the assay on RPMI-8226 it was 11.3 µM (inactive); in the assay with SN12C, 4.34 µM (inactive); in the assay with A549, 7.08 µM (inactive); with OVCAR-8, 5.04 µM (inactive); in the assay on U-251 it was 3.48 µM (inactive). In addition, the GI50 in the assay with MOLT-4 is 3.03 µM (inactive); in the assay with NCI-H226, 10.4 µM (inactive); in the assay on SF-539, 1.99 µM (inactive); in the assay on HCC 2998, 1.74 µM (inactive); in the assay with SK-MEL-5, 0.973 µM (active); in the assay on HL-60, 0.49 µM (active). The GI50 is 1.95 µM (inactive) in the assay on CAKI-1, 0.282 µM (active) in the assay on SF-295 and 4.4 µM (inactive) in the assay on UACC-257.

Regarding `O=C(Nc1nc2ccc([N+](=O)[O-])cc2s1)C(=O)C(C(=O)c1ccncc1)C1OC(=O)c2ccccc21` (stereo not given), the GI50 with RPMI-8226, in the assay on SN12C, in the assay on A549, with OVCAR-8, in the assay on U-251 and in the assay on MOLT-4 was > 100 µM (inactive) throughout. For the same molecule, the GI50 in the assay on NCI-H226, in the assay on HCC 2998, in the assay on HL-60, with CAKI-1 and in the assay on UACC-257 was > 100 µM (inactive) each time.

As for `COc1ccc(S(=O)(=O)N/N=C\c2cc([N+](=O)[O-])cc(I)c2O)c(OC)c1OC`, the GI50 was 25 µM (inactive) in the assay on SK-OV-3; 26.5 µM (inactive) in the assay with RPMI-8226; 31.5 µM (inactive) in the assay with SN12C; 59 µM (inactive) in the assay on A549; 34.4 µM (inactive) in the assay on OVCAR-8; 25.3 µM (inactive) in the assay with U-251. The GI50 with MOLT-4 is 25.1 µM (inactive); in the assay on NCI-H226, 17.3 µM (inactive); in the assay on HCC 2998, 31.4 µM (inactive); with SK-MEL-5, 21.2 µM (inactive); with HL-60, 26.6 µM (inactive); in the assay on CAKI-1, 30.1 µM (inactive). In addition, the GI50 in the assay with SF-295 is 30.6 µM (inactive); in the assay on UACC-257 it was 26.7 µM (inactive).

As to `Cc1ccc(S(=O)(=O)CC(=O)CC(=O)C(=O)Nc2cccc(C(F)(F)F)c2)cc1`, the GI50 in the assay on SK-OV-3, in the assay with RPMI-8226, with NCI-H522, in the assay with SN12C, in the assay on A549 and in the assay on U-251 was > 100 µM (inactive) in each case. Also, the GI50 is > 100 µM (inactive) in the assay with MOLT-4; > 100 µM (inactive) with NCI-H226; > 100 µM (inactive) with SF-539; > 100 µM (inactive) with SK-MEL-5; 97.1 µM (inactive) in the assay on HL-60; > 100 µM (inactive) with CAKI-1. In addition, the GI50 in the assay on SF-295 and in the assay on UACC-257 was > 100 µM (inactive) each time.

`COc1cc2c(cc1OC)C(C(=O)O)C(c1ccccc1)N(C)C2=O` (stereo not given): the GI50 with SK-OV-3, in the assay on RPMI-8226, in the assay on NCI-H522, in the assay with SN12C, in the assay with A549 and with OVCAR-8 was > 100 µM (inactive) each time. For the same molecule, the GI50 with U-251, in the assay with MOLT-4, in the assay with SF-539, in the assay on HCC 2998, with SK-MEL-5 and in the assay on CAKI-1 was > 100 µM (inactive) in each case. Moreover, the GI50 with SF-295 and in the assay with UACC-257 was > 100 µM (inactive) throughout.

Consider `CCN(CC)CCCCC1CCN(CC(=O)N2CC(C)C(=O)Nc3ccccc32)CC1` (stereo not given), for which the GI50 with SK-OV-3, in the assay with RPMI-8226, in the assay on SN12C, in the assay on A549, with U-251 and in the assay on MOLT-4 was > 100 µM (inactive) throughout. In addition, the GI50 with NCI-H226, with HCC 2998, in the assay with SK-MEL-5, in the assay on HL-60, with CAKI-1 and in the assay on SF-295 was > 100 µM (inactive) in each case. The GI50 in the assay with UACC-257 was > 100 µM (inactive).

With `Cc1cccc(NC(=O)CC#N)c1Cl`, the GI50 with SK-OV-3, in the assay with RPMI-8226, in the assay on NCI-H522, in the assay with SN12C, with A549 and with U-251 was > 100 µM (inactive) each time. The GI50 in the assay on MOLT-4, in the assay with NCI-H226, with SF-539, in the assay with HL-60, in the assay with CAKI-1 and in the assay with SF-295 was > 100 µM (inactive) each time. In addition, the GI50 in the assay on UACC-257 is > 100 µM (inactive).

With `O=C1c2ccc3c4ccccc4n(-c4ccccc4)c3c2C(=O)N1c1ccc(Cl)cc1`, the GI50 with SK-OV-3, with NCI-H522, in the assay on SN12C, in the assay with A549, in the assay on OVCAR-8 and in the assay with U-251 was > 100 µM (inactive) in each case. Besides, the GI50 in the assay on MOLT-4, with NCI-H226, with SF-539, with HCC 2998, in the assay with SK-MEL-5 and with HL-60 was > 100 µM (inactive) throughout. Also, the GI50 with CAKI-1, in the assay with SF-295 and in the assay with UACC-257 was > 100 µM (inactive) throughout.

For the molecule `CCCCSN1C(=O)c2ccccc2C1=S`, the GI50 was > 100 µM (inactive) in the assay on SK-OV-3; 21 µM (inactive) in the assay on RPMI-8226; > 10 µM (inactive) with NCI-H522; 71.3 µM (inactive) in the assay on SN12C; > 100 µM (inactive) in the assay on A549; 60.4 µM (inactive) in the assay on OVCAR-8. For the same molecule, the GI50 is > 100 µM (inactive) in the assay with U-251; 18.5 µM (inactive) in the assay with MOLT-4; 33.3 µM (inactive) in the assay with SF-539; 73.5 µM (inactive) in the assay on HCC 2998; 60.5 µM (inactive) in the assay on SK-MEL-5; 21.4 µM (inactive) in the assay on HL-60. The GI50 with CAKI-1 was 32.6 µM (inactive); in the assay with SF-295, 39.3 µM (inactive); in the assay on UACC-257, 57.3 µM (inactive).

Regarding `CCN(CC)CCOC(=O)/C(=C/c1ccc(OC)cc1)c1cc(OC)c(OC)c(OC)c1`, the GI50 is 16 µM (inactive) in the assay on RPMI-8226; 2.75 µM (inactive) with NCI-H522; 16.1 µM (inactive) with SN12C; 5.56 µM (inactive) in the assay with A549; 15.5 µM (inactive) with OVCAR-8; 4.06 µM (inactive) in the assay on U-251. Besides, the GI50 in the assay with MOLT-4 is 24.5 µM (inactive); in the assay on NCI-H226, 13.5 µM (inactive); in the assay with SF-539, 3.28 µM (inactive); in the assay on SK-MEL-5, 3.26 µM (inactive); with HL-60 it was 3.3 µM (inactive); with CAKI-1 it was 4.42 µM (inactive). Moreover, the GI50 with SF-295 is 1.83 µM (inactive); in the assay with UACC-257, 5.46 µM (inactive).

For orientation: GI50 means the concentration at which growth is held to half of that of the control.
